Experimental data: patent publication US11602538B2, “Prophylaxis and treatment of cognitive dysfunction and decline” (The Florey Institute of Neuroscience and Mental Health, priority 2017, dated 2023)
Entries after “also recorded” stand apart in the source; their conditions may differ.

Tests used:
Type in all cases: in vivo, mouse
[1] = test system: mice receiving a controlled cortical impact traumatic brain injury (TBI); test: Morris water maze after controlled cortical impact TBI; conditions: for escape latency / acquisition of the task (learning component), Morris water maze / probe day 24-hour task retention (recall component), Morris water maze: treated post-TBI daily by oral gavage, 2% in SSV; for escape latency / acquisition of the task (learning component), Morris water maze: 0.1 ml per 10 g, training on dosing days 24-29; for probe day 24-hour task retention (recall component), Morris water maze: dosing day 30
Description: Trehalose (Sigma) has a generous safety profile in rodents and humans has been posted as “Generally Regarded as Safe” (GRAS) for human consumption by the U.S. Federal Drug Administration (FDA) in October 2000, is used as a food additive, and is also an excipient in many pharmaceuticals, making trehalose a safe, natural and pharmaceutically accepted product. In this study, it was supplied as a 2% w/v in standard suspension vehicle (SSV) solution via oral gavage at a dose of 0.1 ml to 10 g body weight. SSV solution was purchased from Sigma and contains 0.9% sodium chloride (NaCl), 0.5% Sodium carboxymethylcellulose (Na-CMC), 0.5% Benzyl alcohol, 0.4%, Tween 80 (polyoxyethylenesorbitan monooleate).
(§1) Surgical procedures and controlled cortical impact (CCI) have been previously described (see Portbury et al., 2015, Metallomics. doi:10.1039/c5mt00234f). Briefly, 3 month-old male C57B16 mice were anesthetized via intraperitoneal injection of 100 mg/kg ketamine and 10 mg/kg xylazine. A 10 mm mid-line incision was made over the skull, and the skin and fascia were reflected to make a 4 mm craniotomy on the central aspect of the right parietal bone using a motorized drill. Upon animal positioning in a stereotaxic frame a CCI injury was subsequently delivered (3 m/s velocity with a 1.5 mm penetration depth).
(§2) Three groups of animals were subjected to TBI as separate experiments. The first group of animals were treated daily with 2% trehalose in SSV solution at 0.1 ml per 10 g body weight via oral gavage for a period of 31 days or SSV solution following the TBI. […] The second groups of animals underwent an identical dosing procedure but were treated with either SSV or maltose as a disaccharide control for trehalose. […] A further group of animals was pre-treated with trehalose prior to TBI. These pre-treated mice received a daily treatment of 2% trehalose in SSV solution at 0.1 ml per 10 g body weight via oral gavage for 7 days prior to TBI. Following TBI, these animals received SSV solution only for the remaining duration of the experiment.
(§3) The Morris Water Maze (MWM) was used to assess the effect of trehalose on spatial learning and memory function following TBI. The pre-training acclimation day of the water maze was performed on day 23 of dosing, followed by six days of place discrimination training of four 90 second trials per day, conducted on days 24-29 of dosing. The probe trial was performed 24 hours after training on dosing day 30 to assess retention of the task. Data was analysed using the Ethovision automated tracking system. Animals were culled on day 31. Both experimental groups adhered to the same time lines of behavioral assessment. The open field assessment was performed on day 19 of dosing and the Y-maze assessment was performed on day 21 of dosing.
(§4) For LA-ICPMS samples, statistical analysis was carried out in Prism 7 (Graph-Pad) software. Analysis was carried out with a two-tailed t test with the level of significance set at p=0.05. For multiple comparisons two-way ANOVA was used to identify significant differences between ipsilateral and contralateral ROI's. For western blot analysis, images were produced using Image Studio Lite (version 4.0.21, LI-COR Biosciences) and subsequent statistical analysis was carried out in Prism 7 (Graph-Pad). All behavioral analysis was performed using Prism 7 (Graph-Pad).

[2] = test system: mice receiving a controlled cortical impact traumatic brain injury (TBI); test: Y-maze assessment after TBI; conditions: for five-minute frequency of visits into the novel arm, Y-maze / one-minute duration of time in the novel arm, Y-maze / one-minute frequency of visits into the novel arm, Y-maze: treated post-TBI, dosing day 21, vs SSV
Description: as §1, §2, §3, §4

doublecortin (DCX) [3] = test: Doublecortin expression in Tg2576 brain; conditions: Tg2576 hippocampus; vs SSV littermates
Description: (§5) For the behaviorally assessed animals the cortex and hippocampus of both ipsilateral and contralateral hemispheres were homogenized in 15 volumes of ice-cold PBS containing Complete Protease Inhibitor Cocktail tablets (Roche Applied Science, Indianapolis, Ind., USA) and subsequently centrifuged (100,000×g) for 30 minutes at 4° C. Supernatant was removed to yield the soluble fraction (S1). Remaining pellet underwent further extraction via 30 minutes of vigorous agitation in above mentioned homogenization buffer containing 2% (vol/vol) Triton X100. Insoluble material was pelleted via centrifugation (20,000×g) for 20 minutes, and supernatant was retained as the membrane fraction (P1). Protein concentrations were determined using Pierce BCA protein assay (Pierce Biotechnology, Rockford, Ill., USA) to ensure equal loading of 10 μg protein samples on gel. Samples were prepared for PAGE by the addition of 4× protein sample loading buffer (LICOR, Lincoln, Nebr., USA) and 10× NuPAGE sample reducing agent (to a final 1× concentration). […] Blots were rinsed in TBST and incubated with appropriate secondary antibody (1 h, RT), followed by further rinsing and imaged using a LI-COR Odyssey Imaging system (LI-COR Biosciences, Lincoln Nebr., USA), and analysed with Image Studio Lite software (LI-COR Biosciences, Lincoln Nebr., USA). […]

[4] = test system: mice receiving a controlled cortical impact traumatic brain injury (TBI); test: Volumetric analysis of cortical tissue loss after TBI; conditions: treated after TBI; vs controls
Description: as §1, §2

Pro-BDNF = test: Western blot of brain tissue after TBI: Pro-BDNF
Description: as §2, §5

[5] = test system: brain derived neurotrophic factor (BDNF); test: Western blot of brain tissue after TBI: BDNF
Description: as §2, §5

synaptophysin [6] = test: Synaptophysin expression in Tg2576 brain
Description: as §5, with “concentration). Samples were heated to 70° C. for 10 min, loaded onto Bolt 4-12% Bis-Tris Plus gels (Invitrogen-Life Technologies, Grand Island, N.Y., USA) along with Licor One-Color protein molecular weight markers (LICOR, Lincoln, Nebr., USA) and run at 125 V for 60 min in appropriately diluted Bolt MES SDS 20× running buffer (Invitrogen-Life Technologies, Grand Island, N.Y., USA).” for “concentration).”
Transgenic Tg2576 mice were treated daily with 2% trehalose (0.1 ml/10 g body weight) in SSV (Sigma)(n=15, average age 16.2±3 months of age) via oral gavage or SSV (saline vehicle suspension) (n=12, 16±3 months of age). […] Mice were culled on day 31, and DCX and synaptophysin expression were assessed.

synaptophysin [7] = test: Western blot of brain tissue after TBI: synaptophysin
Description: as §2
as §5, with “concentration). Samples were heated to 70° C. for 10 min, loaded onto Bolt 4-12% Bis-Tris Plus gels (Invitrogen-Life Technologies, Grand Island, N.Y., USA) along with Licor One-Color protein molecular weight markers (LICOR, Lincoln, Nebr., USA) and run at 125 V for 60 min in appropriately diluted Bolt MES SDS 20× running buffer (Invitrogen-Life Technologies, Grand Island, N.Y., USA). Gels were transferred to Immobilon—PF, PVDF membrane (Millipore) using the Invitrogen Bolt wet-gel Transfer Device (Invitrogen-Life Technologies, Grand Island, N.Y., USA) at 15 V for 60 min in appropriately diluted 20× Bolt transfer buffer (Invitrogen-Life Technologies, Grand Island, N.Y., USA).” for “concentration).”

LC3 = test: Autophagy by LC3 western blot after TBI; conditions: between trehalose, SSV and maltose treated groups after TBI
Description: as §2
For the behaviorally assessed animals the cortex and hippocampus of both ipsilateral and contralateral hemispheres were homogenized in 15 volumes of ice-cold PBS containing Complete Protease Inhibitor Cocktail tablets (Roche Applied Science, Indianapolis, Ind., USA) and subsequently centrifuged (100,000×g) for 30 minutes at 4° C. Supernatant was removed to yield the soluble fraction (S1). […] Protein concentrations were determined using Pierce BCA protein assay (Pierce Biotechnology, Rockford, Ill., USA) to ensure equal loading of 10 μg protein samples on gel. […]

doublecortin (DCX) [8] = test: Western blot of brain tissue after TBI: doublecortin
Description: as §2
as §5, with “concentration). Samples were heated to 70° C. for 10 min, loaded onto Bolt 4-12% Bis-Tris Plus gels (Invitrogen-Life Technologies, Grand Island, N.Y., USA) along with Licor One-Color protein molecular weight markers (LICOR, Lincoln, Nebr., USA) and run at 125 V for 60 min in appropriately diluted Bolt MES SDS 20× running buffer (Invitrogen-Life Technologies, Grand Island, N.Y., USA). Gels were transferred to Immobilon—PF, PVDF membrane (Millipore) using the Invitrogen Bolt wet-gel Transfer Device (Invitrogen-Life Technologies, Grand Island, N.Y., USA) at 15 V for 60 min in appropriately diluted 20× Bolt transfer buffer (Invitrogen-Life Technologies, Grand Island, N.Y., USA).” for “concentration).”

[9] = test system: mice receiving a controlled cortical impact traumatic brain injury (TBI); test: Open field assessment after TBI; conditions: treated post-TBI, dosing day 19, vs SSV control
Description: as §1, §2, §3, §4

Tg2576 transgenic mice = test: Morris water maze in Tg2576 Alzheimer's disease model
Description: Transgenic Tg2576 mice were treated daily with 2% trehalose (0.1 ml/10 g body weight) in SSV (Sigma)(n=15, average age 16.2±3 months of age) via oral gavage or SSV (saline vehicle suspension) (n=12, 16±3 months of age). Mice were dosed for a period of 31 days, with the Morris water maze commencing on day 23 of dosing. Mice were culled on day 31, and DCX and synaptophysin expression were assessed.

[10] = contralateral cortex, vs SSV and maltose
[11] = contralateral cortex, vs SSV and maltose, listed as Trehalose
[12] = contralateral hippocampus or ipsilateral cortex and hippocampus
[13] = pre-treated 7 days before TBI, vs SSV littermates

OC[C@H]1O[C@H](O[C@H]2[C@H](O)[C@@H](O)C(O)O[C@@H]2CO)[C@H](O)[C@@H](O)[C@@H]1O (mixture of isomers) [maltose]
escape latency / acquisition of the task (learning component), Morris water maze ([1]; vs SSV controls): no such improvement; also recorded: no significant differences
probe day 24-hour task retention (recall component), Morris water maze ([1]; vs SSV controls): no such improvement; also recorded: no significant differences
five-minute frequency of visits into the novel arm, Y-maze [2]: no significant preference for the novel arm; also recorded: no significant improvement
one-minute duration of time in the novel arm, Y-maze [2]: no significant improvement
one-minute frequency of visits into the novel arm, Y-maze [2]: no significant preference for the novel arm; also recorded: no significant improvement

OC[C@H]1O[C@H](O[C@H]2O[C@H](CO)[C@@H](O)[C@H](O)[C@H]2O)[C@H](O)[C@@H](O)[C@@H]1O [trehalose]
DCX protein expression (doublecortin (DCX) [3]): increased; also recorded: significant (p<0.0401) increase
learning component, Morris water maze ([1]; pre-treated 7 days before TBI with 2% oral gavage, SSV only after TBI, vs SSV controls): outperformed SSV controls in the learning (FIG. 1a) component of the water maze trial, although not significantly
recall component, Morris water maze ([1]; pre-treated 7 days before TBI with 2% oral gavage, SSV only after TBI, vs post-treated mice and SSV controls): significantly outperform trehalose post-treated mice and SSV controls
escape latency / acquisition of the task (learning component), Morris water maze ([1]; vs SSV controls): overall significant performance improvement
probe day 24-hour task retention (recall component), Morris water maze ([1]; vs SSV controls): overall significant performance improvement; also recorded: significant improvement in memory
cortical tissue loss [4]: no difference
pro-BDNF protein (Pro-BDNF; [10]): significant increase
pro-BDNF protein (Pro-BDNF; [11]): significantly increased
pro-BDNF protein (Pro-BDNF; [12]): not significantly elevated
BDNF protein [5, 10]: significant increase
BDNF protein [5, 11]: significantly increased
BDNF protein [5, 12]: not significantly elevated
synaptophysin protein expression (synaptophysin [6]; Tg2576 cortex, trehalose vs SSV): no significant difference
synaptophysin protein expression (synaptophysin [6]; Tg2576 hippocampus, vs SSV littermates): increased
synaptophysin protein expression (synaptophysin [6]; Tg2576 hippocampus, vs SSV littermates, listed as Trehalose): significant increase
synaptophysin protein expression (synaptophysin [7]; contralateral cortex, 31 days post-TBI, vs SSV and maltose controls): significantly elevated expression
synaptophysin protein expression (synaptophysin [7]; contralateral cortex, 31 days post-TBI, vs SSV and maltose controls, listed as Trehalose): significantly increased
synaptophysin protein expression (synaptophysin [7]; contralateral hippocampus, ipsilateral cortex and hippocampus): no significant elevation
synaptophysin protein expression (synaptophysin [7]; ipsilateral hippocampus, vs control groups): non-significant elevation
enhancement in autophagy (LC3) (LC3): not detectable
DCX protein (doublecortin (DCX) [8]; contralateral cortex, vs SSV and maltose controls): significant increase
DCX protein (doublecortin (DCX) [8]; contralateral cortex, vs SSV and maltose controls, listed as Trehalose): significantly increases
DCX protein (doublecortin (DCX) [8]; contralateral hippocampus or ipsilateral cortex and hippocampus, vs control groups): absence of elevated DCX
DCX expression (doublecortin (DCX) [8]; ipsilateral cortex and hippocampus, vs SSV and maltose controls): significantly decreased
five-minute frequency, Y-maze [2, 13]: performed significantly better
one-minute duration, Y-maze [2, 13]: performed significantly better
one-minute frequency, Y-maze [2, 13]: performed significantly better
five-minute duration, Y-maze ([2]; pre-treated 7 days before TBI, vs post-treatment and SSV mice): significantly outperformed both the trehalose post-treatment and SSV treated mice
five-minute frequency of visits into the novel arm, Y-maze [2]: significantly enhanced
one-minute duration of time in the novel arm, Y-maze [2]: significantly greater duration of time in the novel arm; also recorded: significant overall duration of time in the novel arm
one-minute frequency of visits into the novel arm, Y-maze [2]: significantly enhanced
five-minute frequency of visits into the novel arm, Y-maze ([2]; listed as Trehalose): significant overall frequency of visitation preference for the novel arm
one-minute frequency of visits into the novel arm, Y-maze ([2]; listed as Trehalose): significant overall frequency of visitation preference for the novel arm
ambulatory time, open field [9]: significant increase
ambulatory velocity, open field [9]: no significant difference
total ambulatory distance, open field [9]: significant increase
vertical counts, open field [9]: significant increase
ambulatory velocity, open field ([9]; listed as Trehalose): without a significant increase
cognitive improvement in the Morris water maze (Tg2576 transgenic mice; 2% trehalose daily oral gavage for 31 days): significant cognitive improvement
escape latency, Morris water maze (Tg2576 transgenic mice; 2% trehalose daily oral gavage for 31 days, vs Tg2576 SSV littermates): significant decrease
time spent in the relevant quadrant, Morris water maze (Tg2576 transgenic mice; 2% trehalose daily oral gavage, vs SSV littermates): significant (p<0.0003) increase
